# Measured values: patent US8822549B2, “Buffered oxygen therapeutic” (priority 2011, dated 2014)
# Key:
# [1] = tested on: hypoxic tumors; test: Published studies: fluorocarbons as O2 delivery agents to sensitize hypoxic tumors to radiation therapy; assay type: in vivo; conditions: versus the liquid fluorocarbons fluosol and perfluoroctylbromide
# Procedure: In these studies, fluorocarbons were administered systemically and oxygen was administered via inhalation to sensitize hypoxic tumors to radiation therapy. PFOB was effective at less than 1/100th the dose of the liquid fluorocarbons fluosol and […].
# [2] = tested on: hypoxic tumors; conditions: administered systemically, oxygen via inhalation; published studies; cited from earlier work
structure (smiles),measurement,setting,value
"FC(F)(F)C(F)(F)C(F)(F)C(F)(F)C(F)(F)C(F)(F)C(F)(F)C(F)(F)Br [PFOB, perfluoroctylbromide]",effective dose as a fraction of the dose of liquid fluorocarbons,[1],less than 1/100
same,Volume (dose as O2 delivery agent),[2],0.002 to 0.015 L/kg
same,g/kg (fluorocarbon dose as O2 delivery agent),[2],2 to 15 g/kg
